Columns and labels:
[1] = clearance of the cyanines in the human body; format: in vivo
Text: (§1) The present targeting molecule is very selective and very specific in binding to necrotic cells. […] For the present invention four specific cyanines are selected, namely HQ4, HQ5, CW-800 and ZW-800. These molecules are found to have a high affinity towards the intracellular proteins, including tubulin and actin. […] As a result very low concentrations c.q. amounts of the present system may be used to provide advantageous effects thereof. It is noted that apoptosis specific probes, in contrast to necrosis specific probes will also target healthy tissue as apoptosis is involved in normal tissue turnover. The present cyanine is attached to a second entity, namely a chelator, wherein the chelator is selected from DOTA and NOTA (DOTA: 1,4,7,10-Tetraazacyclododecane-1,4,7,10-tetraacetic acid and NOTA: 1,4,7-triazacyclononane-N,N′,N″-triacetic acid). Attached to the chelator is attached a third entity, namely a radionuclide selected from Cu, In, Gd, Ga, Lu, Y, I, and Zr. The present system is found to be effective as a medicament, also referred to as drug, for cancers selected from esophagus, pharynx and larynx, lung, brain, and intestines. These cancers are considered to relate to and being associated with the Central Nervous system, the respiratory tract, the gastro-intestinal tract, […], and head-neck region, respectively. […]

[2] = tested on: intracellular proteins, including tubulin and actin; assay: binding of cyanine targeting molecules to intracellular proteins
Text: as §1

affinity towards the intracellular proteins [2]: high affinity
SMILES: CC1(C)C(/C=C/C2=C(Oc3ccc(S(=O)(=O)O)cc3)C(=C/C=C3/N(CCCCS(=O)(=O)O)c4ccc(S(=O)(=O)[O-])cc4C3(C)C)/CCC2)=[N+](CCCCCC(=O)O)c2ccc(S(=O)(=O)O)cc21 [CW-800]
clearance in the human body [1]: cleared in the human body specifically well

Source: patent US20220175974A1, “TARGETING COMPOUNDS FOR CANCERS SELECTED FROM ESOPHAGUS, PHARYNX AND LARYNX, LUNG, BRAIN, AND INTESTINES” (HQ MEDICAL NETHERLANDS B.V., priority 2019, published 2022)
